Active and inactive are the calls of the source. The rule behind the calls is not given here.
What was measured:
[1] = system: Hepatocyte; assay: Inhibition of lipid metabolism in mouse primary hepatocytes assessed as reduction in intracellular tryglyceride level at 10 uM incubated for 24 hrs; assay type: functional, cell-based
[2] = AUC (0 to infinity) in overnight fasted Sprague-Dawley rat at 5 mg/kg, po measured upto 24 hrs; assay type: ADME, organism-based; design: dose 5 mg/kg, time < 24 hrs, route po; details: in vivo
[3] = molecular target: CYP2C9 (Homo sapiens, UniProt P11712); assay: Inhibition of CYP2C9 in human liver microsomes at 10 uM incubated for 10 mins by LC-MS/MS analysis relative to control; assay type: ADME, Microsome
[4] = Agonist activity at human TRbeta H435 mutant expressed in Escherichia coli BL21 (DE3) cells by alphascreen assay
[5] = Half life in overnight fasted Sprague-Dawley rat at 5 mg/kg, iv measured upto 24 hrs; assay type: ADME, organism-based; details: in vivo
[6] = system: Hepatocyte; assay: Inhibition of lipid metabolism in mouse primary hepatocytes assessed as reduction in intracellular total cholesterol level at 10 uM incubated for 24 hrs; assay type: functional, cell-based
[7] = molecular target: T1, Egl nine homolog 1 (Homo sapiens, UniProt Q9GZT9); assay: Binding affinity to PHD2 (unknown origin) assessed as change in melting temperature at 10 uM in presence of ZnSO4 by thermal shift assay
[8] = system: CWR22R; assay: Cytotoxicity against human 22Rv1 cells assessed as reduction in cell viability at 10 uM incubated for 72 to 96 hrs by Celltiter-Glo assay; assay type: toxicity, cell-based; details: time 72-96 hrs
[9] = system: HepG2; assay: Inhibition of lipid metabolism in human HepG2 cells assessed as increase in CPT1 levels at 10 uM incubated for 24 hrs by Western blot analysis; assay type: functional, cell-based
[10] = Microsomal stability in human liver microsomes assessed as intrinsic clearance at 1 uM incubated for 60 mins by HPLC-MS/MS analysis; assay type: ADME, Microsome; details: read-out: CLH
[11] = system: HepG2; assay: Inhibition of lipid metabolism in human HepG2 assessed as reduction in intracellular tryglyceride level at 1 to 10 uM incubated for 24 hrs; assay type: functional, cell-based; details: dose 1-10 µM
[12] = AUC (0 to infinity) in overnight fasted Sprague-Dawley rat at 5 mg/kg, iv measured upto 24 hrs; assay type: ADME, organism-based; design: dose 5 mg/kg, time < 24 hrs, route iv; details: in vivo
[13] = molecular target: CYP2B6 (Homo sapiens, UniProt P20813); assay: Inhibition of CYP2B6 in human liver microsomes at 10 uM incubated for 10 mins by LC-MS/MS analysis relative to control; assay type: ADME, Microsome
[14] = system: HepG2; assay: Induction of mitochondrial uncoupled respiration in human HepG2 cells assessed as increase in oxygen consumption rate at 10 uM measured after 24 hrs by Seahorse XFe96 flux analyzer; assay type: functional, cell-based
[15] = Tmax in overnight fasted Sprague-Dawley rat at 5 mg/kg, po measured upto 24 hrs; assay type: ADME, organism-based; details: in vivo
[16] = system: HFL1; assay: Cytotoxicity against human HFL1 cells assessed as reduction in cell viability at 10 uM incubated for 72 to 96 hrs by Celltiter-Glo assay; assay type: toxicity, cell-based; details: hfl1, 10 µM, time 72-96 hrs
[17] = Cmax in overnight fasted Sprague-Dawley rat at 5 mg/kg, iv measured upto 24 hrs; assay type: ADME, organism-based; design: time < 24 hrs, dose 5 mg/kg, route iv; details: in vivo
[18] = Volume of distribution at steady state in overnight fasted Sprague-Dawley rat at 5 mg/kg, iv measured upto 24 hrs; assay type: ADME, organism-based; details: in vivo, read-out: Vdss
[19] = Cmax in overnight fasted Sprague-Dawley rat at 5 mg/kg, po measured upto 24 hrs; assay type: ADME, organism-based; design: time < 24 hrs, dose 5 mg/kg, route po; details: in vivo
[20] = system: MCF7; assay: Cytotoxicity against human MCF7 cells assessed as reduction in cell viability at 10 uM incubated for 72 to 96 hrs by Celltiter-Glo assay; assay type: toxicity, cell-based; details: mcf7, 10 µM, time 72-96 hrs
[21] = molecular target: T2, Thyroid hormone receptor alpha (Homo sapiens) (UniProt P10827); details: filed as agonist, dose 10.0 µM
T2 sequence (whole entry): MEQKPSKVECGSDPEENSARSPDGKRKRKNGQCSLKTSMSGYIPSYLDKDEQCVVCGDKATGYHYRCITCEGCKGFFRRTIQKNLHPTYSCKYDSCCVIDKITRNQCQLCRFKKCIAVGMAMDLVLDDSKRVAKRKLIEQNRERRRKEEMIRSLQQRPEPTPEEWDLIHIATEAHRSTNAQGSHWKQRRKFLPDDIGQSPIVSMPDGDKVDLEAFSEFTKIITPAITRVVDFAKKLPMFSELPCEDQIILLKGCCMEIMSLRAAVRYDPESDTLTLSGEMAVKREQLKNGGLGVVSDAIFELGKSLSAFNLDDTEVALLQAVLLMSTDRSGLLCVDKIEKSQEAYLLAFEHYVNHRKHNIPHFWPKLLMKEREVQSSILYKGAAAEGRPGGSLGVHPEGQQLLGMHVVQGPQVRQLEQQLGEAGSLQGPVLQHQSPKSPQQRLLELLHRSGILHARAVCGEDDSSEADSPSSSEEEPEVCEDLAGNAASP

[22] = system: HepG2; assay: Inhibition of lipid metabolism in human HepG2 assessed as reduction in intracellular total cholesterol level at 1 to 10 uM incubated for 24 hrs; assay type: functional, cell-based; details: dose 1-10 µM
[23] = system: HepG2; assay: Induction of mitochondrial basal respiration in human HepG2 cells assessed as increase in oxygen consumption rate at 10 uM measured after 24 hrs by Seahorse XFe96 flux analyzer; assay type: functional, cell-based
[24] = molecular target: CYP2C19 (Homo sapiens, UniProt P33261); assay: Inhibition of CYP2C19 in human liver microsomes at 10 uM incubated for 45 mins by LC-MS/MS analysis relative to control; assay type: ADME, Microsome
[25] = Tmax in overnight fasted Sprague-Dawley rat at 5 mg/kg, iv measured upto 24 hrs; assay type: ADME, organism-based; details: in vivo
[26] = molecular target: CYP2C8 (Homo sapiens, UniProt P10632); assay: Inhibition of CYP2C8 in human liver microsomes at 10 uM incubated for 20 mins by LC-MS/MS analysis relative to control; assay type: ADME, Microsome
[27] = molecular target: CYP2D6 (Homo sapiens, UniProt P10635); assay: Inhibition of CYP2D6 in human liver microsomes at 10 uM incubated for 45 mins by LC-MS/MS analysis relative to control; assay type: ADME, Microsome
[28] = system: BXPC-3; assay: Cytotoxicity against human BXPC-3 cells assessed as reduction in cell viability at 10 uM incubated for 72 to 96 hrs by Celltiter-Glo assay; assay type: toxicity, cell-based; details: bxpc-3, 10 µM, time 72-96 hrs
[29] = system: HepG2; assay: Inhibition of lipid metabolism in human HepG2 cells assessed as increase in p-ACC/ACC ratio at 10 uM incubated for 24 hrs by Western blot analysis; assay type: functional, cell-based
[30] = Half life in overnight fasted Sprague-Dawley rat at 5 mg/kg, po measured upto 24 hrs; assay type: ADME, organism-based; details: in vivo
[31] = Oral bioavailability in overnight fasted Sprague-Dawley rat at 5 mg/kg measured upto 24 hrs; assay type: ADME, organism-based; details: in vivo
[32] = molecular target: T1, Egl nine homolog 1; assay: Inhibition of PHD2 (unknown origin) at 5 uM incubated for 15 mins by competitive fluorescence polarization assay relative to control
[33] = Clearance in overnight fasted Sprague-Dawley rat at 5 mg/kg, iv measured upto 24 hrs; assay type: ADME, organism-based; details: in vivo
[34] = system: HepG2; assay: Cytotoxicity against human HepG2 cells assessed as reduction in cell viability at 10 uM incubated for 72 to 96 hrs by Celltiter-Glo assay; assay type: toxicity, cell-based; details: hepg2, 10 µM, time 72-96 hrs
[35] = molecular target: CYP1A2 (Homo sapiens, UniProt P05177); assay: Inhibition of CYP1A2 in human liver microsomes at 10 uM incubated for 10 mins by LC-MS/MS analysis relative to control; assay type: ADME, Microsome
Sequence of CYP1A2 (P05177 whole entry): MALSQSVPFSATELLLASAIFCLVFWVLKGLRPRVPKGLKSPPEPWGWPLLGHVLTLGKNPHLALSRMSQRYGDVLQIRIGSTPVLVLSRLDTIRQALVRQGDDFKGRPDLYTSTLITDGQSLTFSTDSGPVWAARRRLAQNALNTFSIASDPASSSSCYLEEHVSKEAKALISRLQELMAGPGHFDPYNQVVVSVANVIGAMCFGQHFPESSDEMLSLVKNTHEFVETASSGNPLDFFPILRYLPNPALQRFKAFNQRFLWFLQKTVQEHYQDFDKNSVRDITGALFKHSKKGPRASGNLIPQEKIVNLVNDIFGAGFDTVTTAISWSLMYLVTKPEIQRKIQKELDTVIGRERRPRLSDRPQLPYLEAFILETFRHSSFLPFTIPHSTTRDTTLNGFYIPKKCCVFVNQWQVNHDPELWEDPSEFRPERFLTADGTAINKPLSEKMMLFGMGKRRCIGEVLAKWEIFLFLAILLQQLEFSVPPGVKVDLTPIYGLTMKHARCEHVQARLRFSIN

T1 sequence (Q9GZT9 2-426 limits assumed): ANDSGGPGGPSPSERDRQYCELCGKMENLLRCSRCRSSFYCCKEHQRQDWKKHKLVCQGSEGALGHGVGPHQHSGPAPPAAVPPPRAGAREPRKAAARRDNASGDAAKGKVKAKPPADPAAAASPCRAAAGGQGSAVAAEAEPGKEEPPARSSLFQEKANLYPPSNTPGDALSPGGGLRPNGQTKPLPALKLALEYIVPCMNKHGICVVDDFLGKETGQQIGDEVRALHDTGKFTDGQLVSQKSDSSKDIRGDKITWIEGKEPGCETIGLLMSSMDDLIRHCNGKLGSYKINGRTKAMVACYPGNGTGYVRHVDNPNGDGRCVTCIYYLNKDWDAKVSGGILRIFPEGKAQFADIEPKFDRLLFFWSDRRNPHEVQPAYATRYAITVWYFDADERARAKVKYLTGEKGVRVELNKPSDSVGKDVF
Sequence of CYP2D6 (P10635 whole entry): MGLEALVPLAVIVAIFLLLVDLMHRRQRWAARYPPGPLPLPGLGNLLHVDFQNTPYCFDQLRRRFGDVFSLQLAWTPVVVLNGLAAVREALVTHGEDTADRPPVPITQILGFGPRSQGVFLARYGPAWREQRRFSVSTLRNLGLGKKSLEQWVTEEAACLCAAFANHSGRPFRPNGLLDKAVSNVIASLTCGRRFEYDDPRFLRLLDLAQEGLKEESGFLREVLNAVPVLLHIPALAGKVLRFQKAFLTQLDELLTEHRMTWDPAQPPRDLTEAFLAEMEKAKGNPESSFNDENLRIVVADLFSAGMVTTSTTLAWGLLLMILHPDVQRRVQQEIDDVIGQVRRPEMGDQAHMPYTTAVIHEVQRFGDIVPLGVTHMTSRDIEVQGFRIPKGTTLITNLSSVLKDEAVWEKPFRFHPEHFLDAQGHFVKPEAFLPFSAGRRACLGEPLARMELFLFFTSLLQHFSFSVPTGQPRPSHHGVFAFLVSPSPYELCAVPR
Sequence of CYP2C8 (P10632 whole entry): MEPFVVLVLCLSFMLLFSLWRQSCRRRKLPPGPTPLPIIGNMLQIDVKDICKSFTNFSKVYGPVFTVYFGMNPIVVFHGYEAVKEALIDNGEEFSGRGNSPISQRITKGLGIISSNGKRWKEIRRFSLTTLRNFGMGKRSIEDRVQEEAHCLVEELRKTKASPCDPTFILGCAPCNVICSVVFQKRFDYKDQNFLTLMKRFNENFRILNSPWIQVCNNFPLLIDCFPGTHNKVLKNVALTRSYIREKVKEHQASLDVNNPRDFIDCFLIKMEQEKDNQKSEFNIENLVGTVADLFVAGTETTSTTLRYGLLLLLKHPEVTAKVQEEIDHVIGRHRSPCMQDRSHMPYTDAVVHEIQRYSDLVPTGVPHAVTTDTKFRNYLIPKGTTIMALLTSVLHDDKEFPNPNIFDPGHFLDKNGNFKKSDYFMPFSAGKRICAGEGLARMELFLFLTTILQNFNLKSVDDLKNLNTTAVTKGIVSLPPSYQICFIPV
Sequence of CYP2C9 (P11712 whole entry): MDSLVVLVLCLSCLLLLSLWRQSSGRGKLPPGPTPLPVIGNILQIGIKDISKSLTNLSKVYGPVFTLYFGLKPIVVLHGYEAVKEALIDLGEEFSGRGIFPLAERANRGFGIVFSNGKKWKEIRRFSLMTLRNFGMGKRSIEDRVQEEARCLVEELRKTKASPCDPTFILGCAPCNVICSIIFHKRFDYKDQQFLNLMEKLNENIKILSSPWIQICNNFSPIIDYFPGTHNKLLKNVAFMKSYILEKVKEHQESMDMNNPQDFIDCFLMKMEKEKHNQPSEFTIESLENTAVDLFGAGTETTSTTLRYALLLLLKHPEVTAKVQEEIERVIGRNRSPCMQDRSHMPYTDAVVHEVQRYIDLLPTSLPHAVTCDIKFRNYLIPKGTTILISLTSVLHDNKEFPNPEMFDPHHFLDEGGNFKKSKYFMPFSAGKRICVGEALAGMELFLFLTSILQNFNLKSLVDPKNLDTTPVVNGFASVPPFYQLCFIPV
Sequence of CYP2C19 (P33261 whole entry): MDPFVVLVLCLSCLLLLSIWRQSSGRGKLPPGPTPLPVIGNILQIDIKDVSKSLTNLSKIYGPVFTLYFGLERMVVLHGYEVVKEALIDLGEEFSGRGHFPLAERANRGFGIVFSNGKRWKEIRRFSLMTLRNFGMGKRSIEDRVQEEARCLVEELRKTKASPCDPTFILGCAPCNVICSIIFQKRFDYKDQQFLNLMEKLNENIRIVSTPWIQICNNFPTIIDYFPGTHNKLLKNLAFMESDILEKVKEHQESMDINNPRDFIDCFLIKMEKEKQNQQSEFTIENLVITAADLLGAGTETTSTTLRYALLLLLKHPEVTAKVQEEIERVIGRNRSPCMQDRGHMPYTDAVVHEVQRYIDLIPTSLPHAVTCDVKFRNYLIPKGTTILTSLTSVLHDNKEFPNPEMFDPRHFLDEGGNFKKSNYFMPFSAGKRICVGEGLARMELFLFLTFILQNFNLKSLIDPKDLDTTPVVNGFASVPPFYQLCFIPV
Sequence of CYP2B6 (P20813 whole entry): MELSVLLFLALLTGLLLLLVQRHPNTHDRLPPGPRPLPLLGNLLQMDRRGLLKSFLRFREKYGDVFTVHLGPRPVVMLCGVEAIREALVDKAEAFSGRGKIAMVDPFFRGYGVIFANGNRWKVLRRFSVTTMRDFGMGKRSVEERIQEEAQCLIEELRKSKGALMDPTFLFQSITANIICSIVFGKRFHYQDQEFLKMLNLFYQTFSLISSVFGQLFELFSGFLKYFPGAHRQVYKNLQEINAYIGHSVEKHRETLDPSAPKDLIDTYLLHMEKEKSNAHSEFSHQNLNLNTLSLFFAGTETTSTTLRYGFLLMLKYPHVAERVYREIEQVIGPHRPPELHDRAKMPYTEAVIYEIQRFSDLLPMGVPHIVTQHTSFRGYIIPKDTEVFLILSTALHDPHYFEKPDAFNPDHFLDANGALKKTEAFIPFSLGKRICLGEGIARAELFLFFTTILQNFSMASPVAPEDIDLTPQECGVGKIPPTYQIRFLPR

COc1cc(F)cc(C(=O)c2cc(C)c(Oc3ccc4c(O)c(C(=O)NCC(=O)O)nc(OC)c4c3)c(C)c2)c1
inhibition [1]: Active | AUC(0-inf) [2]: 6830 ng·h/mL | inhibition at 10 min, 10 µM [3]: 18.4% | EC50 [4]: 1340 nM | half-life [5]: 1.8 h | inhibition [6]: Active | ΔTm [7]: 1.5 °C | Activity [8]: Non-Toxic | inhibition [9]: Active | CLint scaled at 1 µM [10]: < 14.5 mL/min/kg | inhibition [11]: Active | AUC(0-inf) [12]: 10900 ng·h/mL | inhibition at 10 min, 10 µM [13]: 15.2% | Activity [14]: Active | Tmax [15]: 1.33 h | Activity [16]: Non-Toxic | Cmax [17]: 8450 ng/mL | Vd [18]: 0.72 L/kg | Cmax [19]: 1450 ng/mL | Activity [20]: Non-Toxic | ΔTm [21]: 0.1 °C | inhibition [22]: Active | Activity [23]: Active | inhibition at 0.75 h, 10 µM [24]: 12% | Tmax [25]: 4.8 min | inhibition at 20 min, 10 µM [26]: 26.3% | inhibition at 0.75 h, 10 µM [27]: -11.3% | Activity [28]: Non-Toxic | inhibition [29]: Active | half-life [30]: 2.58 h | bioavailability [31]: 57.3% | inhibition [32]: 4.8% | clearance [33]: 7.83 mL/min/kg | Activity [34]: Non-Toxic | inhibition at 10 min, 10 µM [35]: 1.67%

Source: ChEMBL document CHEMBL5154903 (J Med Chem, 2022)
